Laboratory results: patent publication US20130046012A1, “NEW COMPOUNDS, SYNTHESIS AND USE THEREOF IN THE TREATMENT OF PAIN” (LACER, S.A., priority 2010, published 2013)
Counter-ions that a name gives are not always drawn.

Assays:
Male Swiss mice [1] = experiment: Formalin test (analgesic activity, licking time of the injected paw); format: in vivo; settings: p.o. 10 min before 5% formalin injection into hind paw, second phase (15-60 min), % inhibition of licking vs. control, Litchfield and Wilcoxon; for ED50: Mus musculus, po, read-out: FORMALIN TEST (ED50 p.o) Phase II
Method: The pharmacological activity of the products of the present invention was tested in vivo in formalin test model, which is known to evaluate neuropathic and inflammatory pain in animals.
The formalin test was introduced as a model of tonic pain in 1977, and has since […] been used extensively in rats and mice. In rats, formalin generates an initial phase of activity (5-10 min, phase 1), a quiescent interphase (5-10 min), and a second phase of activity (lasting 60-90 min, phase 2), and this is seen with spontaneous behaviors, firing of afferent neurons, and activity in dorsal horn neurons. Both active phases involve ongoing peripheral afferent neural activity; inflammation contributes to phase 2 activity and the interphase results from active inhibition. Responses are concentration dependent between 0.25% and 2.5%, plateau from 2.5% to 5%, and can decline at higher concentrations. Formalin also results in tissue edema, and this is longer lasting. Responses to formalin up to 2.5% are predominantly neurogenic, while at higher concentrations, responses involve a further prominent inflammatory component. Within the spinal cord, formalin increases c-Fos expression in neurons and causes activation of microglia, and these may contribute more prominently to longer term changes. Acute responses (to 90 min) may represent a model of ongoing acute pain involving inflammation and aspects of central sensitization, while longer term responses (days, weeks) may represent a model of changes involved in persistent pathological pain.
Male Swiss mice (weight range, 16-20 g) were used (n=6-8 per group).Mice were fasted for 3 hours before the administration of oral treatment with free access to drinking water before the experiment. All experiments were conducted in accordance with the “Guidelines on Ethical Standards for Investigation of Experimental Pain in Animals
Mice were housed in clear plastic chambers with a mirror placed at a 45° angle to allow an unobstructed view of the paws. Mice were injected into the dorsal surface of hind paw with 20 μl of dilute formalin (5%) using a 30-gauge needle. Treatments were administrated p.o. 10 min before formalin injection.
Nociceptive behavior was quantified measuring time spent licking the injected paw after injection.
For evaluation of antinociceptive effect of a potential drug for neuropathic pain, the quantization of the second phase of the test (15-60 min) is the most important. Controls animals were observed under identical conditions without receiving treatments before formalin injection.
For each dose of compound given the % inhibition of licking vs. control animals were calculated. ED50 was calculated using the method of Litchfield and Wilcoxon. At the end of the experiments, mice were humanely euthanized with a dose of sodium pentobarbital (150 mg/kg i.p.).

Male Swiss mice [2] = experiment: Hot plate method (acute pain model); format: in vivo; settings: Mus musculus, oral, 30 minutes before test, hot surface 55° C, dose producing 50% MPE, cutoff 60 seconds, read-out: HOT PLATE (ED50, p.o)
Method: The activity of some of the products was also tested using an acute pain model by using the hot plate method.
The method that was used is described by Eddy N. B. and Leimbach D. (J. Pharm. Exp. Ther. 107: 385-393, 1953). The analgesic effect of the products was evaluated analyzing the behavior of the animals on a hot surface at 55° C±1° C.
Male Swiss mice weighing 20-25 g were used. The compounds being tested were administered orally 30 minutes before starting the test.
The process consisted of placing the animals on the plate and keeping them in a Plexiglas cylinder 25 cm high and 21 cm […]. The time the animals took to jump off the hot surface was determined The animals were selected before starting the test so that those that took longer than 10 seconds to jump off (predrug latency) were not included in the group that would receive treatment.
A predrug latency time was determined before product treatment in all animals and 30 minutes after administering the product being tested, the test was repeated and the maximum time it took the animals to jump off (test latency) was again recorded.
The results are expressed in the table as ED50 that was calculated from % MPE (Maximum Posible Effect) determined as follows:
% MPE=100×(test latency−predrug latency)/(cutoff time−predrug latency)
The % MPE was measured for each compound at different dose levels (μmol/kg) and the ED50 values (dose of compound that produced 50% MPE) were obtained using a computer assisted linear regression analysis of the dose-response curve, including an analysis of variance test for linearity.

SMILES	ED50 (Male Swiss mice [1])	ED50 (Male Swiss mice [2])	FORMALIN TEST (ED50 p.o) Phase II (Male Swiss mice [1])
COc1cccc([C@@]2(O)CCCC[C@@H]2CN(C)C)c1 (relative stereo) [Tramadol hydrochloride, (1R,2R)-rel-2-[(dimethylamino)methyl]-1-(3-methoxyphenyl) cyclohexanol, reference compound]	139 µmol/kg	66 µmol/kg	
COc1cccc([C@@]2(O)CCCC[C@@H]2CN(C)C)c1 (single isomer, unassigned) [Tramadol Enantiomer R,R, reference compound]			126.6 µmol/kg
COc1cccc([C@]2(O)CCCC[C@H]2CN(C)C)c1 (single isomer, unassigned) [Tramadol Enantiomer S,S, reference compound]			233.3 µmol/kg
CN(C)CC1CCCCC1(O)c1cccc(OC(=O)CC2(CNC(=O)OC(C)(C)C)CCCCC2)c1 (centres unmarked) [Product of example 1, (1R2R, 1S25)-3-(2-((dimethylamino)methyl)-1-hydroxycyclohexyl)phenyl 2-(1-((tert-butoxycarbonylamino)methyl)cyclohexyl)acetate]	39.9 µmol/kg	35.7 µmol/kg	
CN(C)C[C@H]1CCCC[C@]1(O)c1cccc(OC(=O)CC2(CNC(=O)OC(C)(C)C)CCCCC2)c1 [Product of example 2]	17.2 µmol/kg	8 µmol/kg	
CN(C)C[C@@H]1CCCC[C@@]1(O)c1cccc(OC(=O)CC2(CNC(=O)OC(C)(C)C)CCCCC2)c1 [Product of example 3]	65.9 µmol/kg		
CCOC(=O)NCC1(CC(=O)Oc2cccc(C3(O)CCCCC3CN(C)C)c2)CCCCC1 (centres unmarked) [Product of example 4, (1R2R, 1S2S) 3-(2-((dimethylamino)methyl)-1-hydroxycyclohexyl)phenyl 2-(1-((ethoxycarbonylamino)methyl)cyclohexyl)acetate]	19 µmol/kg	26.3 µmol/kg	
CCOC(=O)NCC1(CC(=O)Oc2cccc([C@@]3(O)CCCC[C@@H]3CN(C)C)c2)CCCCC1 [Product of example 5, 3-((1R,2R)-2-((dimethylamino)methyl)-1-hydroxycyclohexyl)phenyl 2-(1-((ethoxycarbonylamino)methyl)cyclohexyl)acetate]	6 µmol/kg		
CCOC(=O)NCC1(CC(=O)Oc2cccc([C@]3(O)CCCC[C@H]3CN(C)C)c2)CCCCC1 [Product of example 13, 3-((1S,2S)-2-((dimethylamino)methyl)-1-hydroxycyclohexyl)phenyl 2-(1-((ethoxycarbonylamino)methyl)cyclohexyl)acetate]	28 µmol/kg		
COC(=O)NCC1(CC(=O)Oc2cccc(C3(O)CCCCC3CN(C)C)c2)CCCCC1 (centres unmarked) [Product of example 14, (1R2R, 1S2S) 3-(2-((dimethylamino)methyl)-1-hydroxycyclohexyl)phenyl 2-(1-((methoxycarbonylamino)methyl)cyclohexyl)acetate]	44.5 µmol/kg		
CC(C)OC(=O)NCC1(CC(=O)Oc2cccc(C3(O)CCCCC3CN(C)C)c2)CCCCC1 (centres unmarked) [Product of example 15, (1R2R, 1S2S) 3-(2-((dimethylamino)methyl)-1-hydroxycyclohexyl)phenyl 2-(1-((isopropoxycarbonylamino)methyl)cyclohexyl)acetate]	57.9 µmol/kg		
CN(C)CC1CCCCC1(O)c1cccc(OC(=O)CC2(CNC(=O)OCc3ccccc3)CCCCC2)c1 (centres unmarked) [Product of example 16, (1R2R, 1S2S)3(2-((dimethylamino)methyl)-1-hydroxycyclohexyl)phenyl 2-(1-((benzyloxycarbonylamino)methyl)cyclohexyl)acetate]	37.9 µmol/kg		
CN(C)CC1CCCCC1(O)c1cccc(OC(=O)CC2(CNC(=O)Oc3ccccc3)CCCCC2)c1 (centres unmarked) [Product of example 17, (1R2R, 1S2S)3(2-((dimethylamino)methyl)-1-hydroxycyclohexyl)phenyl 2-(1-((phenoxycarbonylamino)methyl)cyclohexyl)acetate]	39 µmol/kg		
CC(=O)NCC1(CC(=O)Oc2cccc(C3(O)CCCCC3CN(C)C)c2)CCCCC1 (centres unmarked) [Product of example 18, (1R2R, 1S2S)3(2-((dimethylamino)methyl)-1-hydroxycyclohexyl)phenyl 2-(1-(acetamidomethyl)cyclohexyl)acetate]	30.4 µmol/kg		
CCOC(=O)NCC1(CC(=O)Oc2cccc(C3=C(CN(C)C)CCCC3)c2)CCCCC1 [Product of example 19, 3-(2-((dimethylamino)methyl)cyclohex-1-enyl)phenyl 2-(1-((ethoxycarbonylamino)methyl)cyclohexyl)acetate]	62.7 µmol/kg		
CCOC(=O)NCC1(CC(=O)Oc2cccc(C3=CCCCC3CN(C)C)c2)CCCCC1 (centres unmarked) [Product of example 20, 3-(6-((dimethylamino)methyl)cyclohex-1-enyl)phenyl 2-(1-((ethoxycarbonylamino)methyl)cyclohexyl)acetate]	59.7 µmol/kg		
CCOC(=O)NCC1(CC(=O)Oc2cccc([C@@H](CC)[C@@H](C)CN(C)C)c2)CCCCC1 [Product of example 22, 3-((2R,3S)-1-(dimethylamino)-2-methylpentan-3-yl)phenyl 2-(1-((ethoxycarbonylamino)methyl)cyclohexyl)acetate]	30.4 µmol/kg		
CCOC(=O)NC[C@H](CC(=O)Oc1cccc(C2(O)CCCCC2CN(C)C)c1)CC(C)C (stereo partly drawn) [Product of example 23, (1R2R, 1S2S)-(S)-3-(2-((dimethylamino)methyl)-1-hydroxycyclohexyl)phenyl 3-((ethoxycarbonylamino)methyl)-5-methylhexanoate]	75.2 µmol/kg		
CCOC(=O)NC[C@H](CC(=O)Oc1cccc([C@@]2(O)CCCC[C@@H]2CN(C)C)c1)CC(C)C [Product of example 24, (S)-3-((1R,2R)-2-((dimethylamino)methyl)-1-hydroxycyclohexyl)phenyl 3-((ethoxycarbonylamino)methyl)-5-methylhexanoate]	56.9 µmol/kg		
